In patent US8476273B2, “Small molecule inhibitors of Lck SH2 domain binding” (University of Maryland, Baltimore, priority 2007, dated 2013):
“Also recorded” adds a separate entry of the source.

Columns and labels:
[1] = target: T1, Lck SH2 domain (Homo sapiens, UniProt P06239); assay: solid phase EIA of Lck SH2 domain binding to CD3 ζ chain ITAM peptide; conditions: screening concentration of 100 μM
T1 construct: GST
Source text: Compounds have been identified that inhibited Lck SH2 domain binding to the CD3 ζ chain ITAM peptide using a combination of CADD and biological assays using a solid phase EIA assay developed in our laboratory.
(§1) Lck kinase is a member of Src family kinases including Fyn, Lyn, and Hck that have SH2 domains sharing significant sequence homologies at βD5, βE4, EF1 and βG4 sites where these amino acids form the pY+3 binding pocket. Accordingly, it was important to test inhibition specificities of compounds against SH2 domains of these Src kinases and other signal transduction molecules involved in TCR proximal signaling. All 42 compounds identified in the above assay were subjected to specificity screening using a solid phase EIA assay using 7 different GST-SH2 domains (Lck, Fyn, Lyn, Hck, Src, She and Grb2).
(§2) All the compounds that had >40% inhibitory effect in the cellular assays were tested in the solid phase specificity screening assay and three compounds, 72, 87 and 241 were identified to be specific to Lck. Due to the fact that these compounds were specific to Lck SH2 domain, in vitro and in vivo assays described below were conducted using these 3 compounds.

[2] = system: GST-SH2 domains (Fyn, Lyn, Hck, Src, She and Grb2); assay: solid phase EIA specificity screening with other GST-SH2 domains; type: binding; conditions: screening concentration of 100 μM
Source text: as §1, §2

[3] = system: Mtb-induced adjuvant arthritis; assay: Mtb-induced adjuvant arthritis (AA) in Lewis rats; type: in vivo, Lewis rat
Procedure: FIG. 4A is a line graph showing the effect of SMILS in a preventive treatment regimen. […] Mtb was injected on day 0. ▭—Untreated group, ◯—SMILS treated group.
FIG. 4B is a line graph showing the effect of SMILS in therapeutic-1 treatment regimen. […] Mtb was injected on day 0. ⋄—Untreated group, ◯—SMILS treated group (3 mg/kg body weight), ●—SMILS (1 mg/kg body weight) treatment group.
FIG. 4C is a line graph showing the effects of SMILS in therapeutic-2 treatment regimen. […] Mtb was injected on day 0. ⋄—Untreated group, ●—SMILS (3 mg/kg body weight) treatment group.
Pilot experiments using Lewis rats were carried out to assess the effect of SMILS on Mtb-induced AA. The initial experiments described here were carried out using compound 241. Experiments were carried out to test the efficacy of SMILS (3 mg/kg body weight injected i.p.) in three treatment regimens: i.e., preventive: (SMILS injected at −3, −2, −1, 0 days before Mtb injection); therapeutic 1: at the time of AA induction (SMILS injected at 0, 1, 2, 3, 4 days after Mtb injection); and therapeutic 2: at the time of clinical symptom appearance (SMILS injected at 10, 11, 12, 13 days after Mtb injection).
In addition to the visual scoring of the joint swelling, histological examinations of joints from all 4 paws collected at the peak of the disease were carried out.

T1 sequence (P06239 127-224 limits assumed): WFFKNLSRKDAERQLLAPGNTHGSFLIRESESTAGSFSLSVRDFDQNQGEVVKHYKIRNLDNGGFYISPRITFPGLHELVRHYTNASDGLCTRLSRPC

Question: How did the “specificity towards Lck SH2 domain” value [1] turn out when O=C(O)COc1ccccc1/C=N/NC(=O)c1cc(Cl)ccc1O [Compound 72] was run?
Answer: Its value is “showed specificities towards Lck SH2 domain”.

Question: What about the “inhibitory activity against the other SH2 domains” value [2] of the same compound?
Answer: Its value is “little or no inhibitory activity”.

Question: For O=C(NCCSc1ccccc1)c1cncc(Br)c1 [Compound 241], which “specificity towards Lck SH2 domain” value [1] is on record?
Answer: The value was “showed specificities towards Lck SH2 domain”.

Question: What about the “inhibitory activity against the other SH2 domains” value [2] of the same compound?
Answer: Its value is “little or no inhibitory activity”.

Question: And the “joint swelling in Mtb-induced AA, therapeutic 1 regimen” value ([3]; 3 mg/kg i.p. on days 0, 1, 2, 3, 4 after Mtb, Lewis rats)?
Answer: Its value is “significantly reduced the joint swellings in all rats”.

Question: And the “joint swelling in Mtb-induced AA, therapeutic 2 regimen” value ([3]; 3 mg/kg i.p. on days 10, 11, 12, 13 after Mtb, Lewis rats)?
Answer: The value was “significantly reduced the joint swellings in all rats”.

Question: What about the “joint swelling in Mtb-induced AA, preventive regimen” value ([3]; 3 mg/kg i.p. on days -3, -2, -1, 0, Lewis rats) of the same compound?
Answer: The value was “delayed the onset of joint swelling and reduced the severity of joint swellings”.

Question: What about the “histological examination of joints” value ([3]; paws collected at the peak of the disease, AA rats) of the same compound?
Answer: Its value is “absence of damage to the cartilage and inflammatory cells; also recorded: No infiltration of inflammatory cells is observed in the joint space”.
